Measurements taken from patent publication US11155560B2, “Substituted pyrazolo[1,5-a]pyrimidines for modulating CDK9 activity” (Kronos Bio, Inc., priority 2018, dated 2021).
pIC50: −log10 of the molar value.

These compounds were tested against T1, CDK9/cyclin T1 (Homo sapiens, UniProt P50750) (assay: CDK9/cyclin T1 kinase inhibition, LANCE assay). Settings: reaction time 60 minutes, 10 μM ATP, 10-dose IC50, compounds 35-126 (127-208 listed, method not stated), read-out: CDK9/cyclin T1 Potency Grade.
Assay type: biochemical
Experimental: Exemplary compounds of the invention (35-126) were tested for inhibition of CDK9/cyclin T1 kinase. Using a LANCE assay (reaction time 60 minutes), the compounds were tested in 10-dose IC50 duplicate mode with a 3-fold serial dilution starting at 4.3 μM. […] Reactions were carried out at 10 μM ATP. Data was normalized to positive and negative controls and curve fits were analyzed with XLFIT5 as % inhibition vs. log [compound concentration] using a 4-parameter logistic model205. Fit=(A+((B−A)/(1+((C/x)^D)))); Res =(y-fit).

T1 sequence (P50750 whole entry): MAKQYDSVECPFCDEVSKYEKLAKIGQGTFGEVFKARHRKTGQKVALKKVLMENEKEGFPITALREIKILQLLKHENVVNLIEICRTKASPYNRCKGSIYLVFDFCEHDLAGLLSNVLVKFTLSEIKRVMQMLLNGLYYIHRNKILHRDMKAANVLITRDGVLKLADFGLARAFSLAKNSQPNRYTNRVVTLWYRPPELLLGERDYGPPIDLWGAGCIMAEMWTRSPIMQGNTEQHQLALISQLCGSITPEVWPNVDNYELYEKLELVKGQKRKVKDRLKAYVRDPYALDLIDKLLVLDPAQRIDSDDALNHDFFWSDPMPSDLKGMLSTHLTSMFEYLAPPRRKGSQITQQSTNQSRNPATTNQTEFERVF
T1 sequence (O60563 whole entry partner): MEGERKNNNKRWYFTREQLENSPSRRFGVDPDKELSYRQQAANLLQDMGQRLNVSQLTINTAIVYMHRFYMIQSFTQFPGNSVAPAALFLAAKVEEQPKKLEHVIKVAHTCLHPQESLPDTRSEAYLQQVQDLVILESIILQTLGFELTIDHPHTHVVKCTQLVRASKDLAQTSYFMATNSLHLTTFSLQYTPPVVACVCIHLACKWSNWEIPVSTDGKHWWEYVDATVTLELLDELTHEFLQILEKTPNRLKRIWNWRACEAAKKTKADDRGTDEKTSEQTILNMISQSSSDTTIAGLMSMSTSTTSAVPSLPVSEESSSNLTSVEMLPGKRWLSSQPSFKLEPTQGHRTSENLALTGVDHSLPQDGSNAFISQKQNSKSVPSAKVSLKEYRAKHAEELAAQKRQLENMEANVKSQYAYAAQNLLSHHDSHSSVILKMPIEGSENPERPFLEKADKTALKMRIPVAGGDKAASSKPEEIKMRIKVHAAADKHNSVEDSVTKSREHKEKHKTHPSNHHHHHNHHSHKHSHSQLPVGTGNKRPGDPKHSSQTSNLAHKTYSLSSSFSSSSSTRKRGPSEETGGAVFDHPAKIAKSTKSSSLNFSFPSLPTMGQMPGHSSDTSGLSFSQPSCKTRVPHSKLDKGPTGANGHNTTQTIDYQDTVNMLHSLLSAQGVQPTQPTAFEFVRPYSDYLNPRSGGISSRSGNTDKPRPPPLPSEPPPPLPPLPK

Row | pIC50 | SMILES
1 | 6.30 to 9.00 | CCc1cc(N[C@H]2CC[C@H](N)C2)n2nccc2n1 [Compound 47]
2 | 6.30 to 9.00 | N[C@H]1CC[C@H](Nc2cc(Nc3cccc4ccccc34)nc3ccnn23)C1 [Compound 171]
3 | 6.00 to 6.30 | N[C@H]1CC[C@H](Nc2cc(C3=CCOC3)nc3ccnn23)C1 [Compound 126]
4 | 6.30 to 9.00 | Cc1cc(C)cc(-c2cc(N[C@H]3CC[C@H](N)C3)n3nccc3n2)c1 [Compound 196]
5 | 6.30 to 9.00 | CCC(CC)c1cc(N[C@H]2CC[C@H](N(C)CCOC)C2)n2nccc2n1 [Compound 62]
6 | 6.30 to 9.00 | CC(C)N(C)c1cc(N[C@H]2CC[C@H](N)C2)n2nccc2n1 [Compound 86]
7 | 6.30 to 9.00 | CC(C)OC(=O)N[C@@H]1CC[C@@H](Nc2cc(C(C)C)nc3ccnn23)C1 [Compound 140]
8 | 6.30 to 9.00 | Cc1cc(C)cc(-c2cc(N[C@H]3CC[C@H](N)C3)n3nccc3n2)c1 [Compound 105]
9 | 6.30 to 9.00 | CCC(CC)c1cc(N[C@H]2CC[C@H](N(C)CCOC)C2)n2nccc2n1 [Compound 153]
10 | 6.30 to 9.00 | CC1CCC(c2cc(N[C@H]3CC[C@H](N)C3)n3nccc3n2)CC1 (some centres unmarked) [Compound 122]
11 | 6.30 to 9.00 | N[C@H]1CC[C@H](Nc2cc(C3CCCCC3)nc3ccnn23)C1 [Compound 115]
12 | 6.30 to 9.00 | N[C@H]1CC[C@H](Nc2cc(C#CC3CCCCC3)nc3ccnn23)C1 [Compound 119]
13 | 6.30 to 9.00 | CCNc1cc(N[C@H]2CC[C@H](N)C2)n2nccc2n1 [Compound 98]
14 | 6.30 to 9.00 | CC(C)Cc1cc(N[C@H]2CC[C@H](N)C2)n2ncc(Cl)c2n1 [Compound 76]
15 | 6.30 to 9.00 | COc1cc(Cl)cc(-c2cc(N[C@H]3CC[C@H](N)C3)n3nccc3n2)c1 [Compound 165]
16 | 6.30 to 9.00 | CC1(c2cc(N[C@H]3CC[C@H](N)C3)n3nccc3n2)CC1 [Compound 123]
17 | 6.30 to 9.00 | Cc1cc(-c2cc(N[C@H]3CC[C@H](N)C3)n3nccc3n2)ccn1 [Compound 100]
18 | < 6.00 | O=C(N[C@H]1CC[C@H](Nc2cc(C3CC3)nc3ccnn23)C1)OCc1ccccc1 [Compound 175]

Row | pIC50 | SMILES
19 | 6.30 to 9.00 | CC(C)c1cc(N[C@@H]2CC[C@@H](NC=O)C2)n2nccc2n1 [Compound 137]
20 | 6.30 to 9.00 | N[C@H]1CC[C@H](Nc2cc(Nc3cccc4ccccc34)nc3ccnn23)C1 [Compound 80]
21 | < 6.00 | CN1CCN(c2cc(N[C@H]3CC[C@H](N)C3)n3nccc3n2)CC1 [Compound 99]
22 | 6.30 to 9.00 | CN(CCO)c1cc(N[C@H]2CC[C@H](N)C2)n2nccc2n1 [Compound 181]
23 | 6.30 to 9.00 | N[C@H]1CC[C@H](Nc2cc(N3CCCCC3)nc3ccnn23)C1 [Compound 156]
24 | 6.30 to 9.00 | CC(C)c1cc(N[C@@H]2CC[C@@H](NC(=O)OCc3ccccc3)C2)n2nccc2n1 [Compound 50]
25 | 6.30 to 9.00 | Cn1ccc(-c2cc(N[C@H]3CC[C@H](N)C3)n3nccc3n2)n1 [Compound 116]
26 | 6.30 to 9.00 | O=CN[C@@H]1CC[C@@H](Nc2cc(C3CC3)nc3ccnn23)C1 [Compound 51]
27 | < 6.00 | COC(=O)N[C@H]1CC[C@H](Nc2cc(C3CC3)nc3ccnn23)C1 [Compound 180]
28 | 6.00 to 6.30 | Cc1ncc(-c2cc(N[C@H]3CC[C@H](N)C3)n3nccc3n2)cn1 [Compound 103]
29 | 6.30 to 9.00 | N[C@H]1CC[C@H](Nc2cc(N3CCOCC3)nc3ccnn23)C1 [Compound 163]
30 | 6.30 to 9.00 | N[C@H]1CC[C@H](Nc2cc(-c3cccc(Cl)c3)nc3ccnn23)C1 [Compound 75]
31 | 6.30 to 9.00 | CN/C(=N/C#N)N[C@@H]1CC[C@@H](Nc2cc(C(C)C)nc3ccnn23)C1 [Compound 154]
32 | 6.30 to 9.00 | CC(C)c1cccc(-c2cc(N[C@H]3CC[C@H](N)C3)n3nccc3n2)c1 [Compound 121]
33 | 6.30 to 9.00 | CCN(CC)c1cc(N[C@H]2CC[C@H](N)C2)n2nccc2n1 [Compound 79]
34 | 6.00 to 6.30 | N[C@H]1CC[C@H](Nc2cc(C3CCOC3)nc3ccnn23)C1 (some centres unmarked) [Compound 124]
35 | 6.30 to 9.00 | CC(C)N(C)c1cc(N[C@H]2CC[C@H](N)C2)n2nccc2n1 [Compound 177]

Each compound was assayed against T1, CDK9/cyclin T1 (assay: CDK9/cyclin T1 inhibition, radiometric assay). Settings: read-out: CDK9/cyclin T1 Potency Grade.
Assay type: biochemical
Experimental: Exemplary compounds of the invention (1-34) were tested for inhibition of CDK9/cyclin T1. […] Reactions were carried out at 10 μM ATP. Data was normalized to positive and negative controls and curve fits were executed with GraphPad software and were performed where the enzyme activities at the highest concentration of compounds were less than 65%.

Row | pIC50 | SMILES
36 | 6.00 to 6.30 | CCc1cc(N[C@@H]2CC[C@@H](N)C2)n2nccc2n1 [Compound 25, (1R,3R)—N3-(5-ethylpyrazolo[1,5-a]pyrimidin-7-yl)cyclopentane-1,3-diamine]
37 | 6.00 to 6.30 | Cc1cc(N[C@H]2CC[C@@H](N)C2)n2nccc2n1 [Compound 12, [(1R,3S)-3-[(5-methylpyrazolo[1,5-a]pyrimidin-4-ium-7-yl)amino]cyclopentyl]ammonium dichloride]
38 | 6.00 to 6.30 | Cc1cc(N[C@H]2CC[C@H](N)CC2)n2nccc2n1 [Compound 4, [4-[(5-methylpyrazolo[1,5-a]pyrimidin-4-ium-7-yl)amino]cyclohexyl]ammonium dichloride]
39 | 6.30 to 9.00 | CCC(C)c1cc(N[C@H]2C[C@H](N)C2)n2nccc2n1 (some centres unmarked) [Compound 19, N1-(5-sec-butylpyrazolo[1,5-a]pyrimidin-7-yl)cyclobutane-1,3-diamine]
40 | < 6.00 | Cc1cc(NC2CCCC2)n2nccc2n1 [Compound 1, N-cyclopentyl-5-methyl-pyrazolo[1,5-a]pyrimidin-7-amine]
41 | 6.30 to 9.00 | N[C@H]1C[C@H](Nc2cc(C3CCCC3)nc3ccnn23)C1 [Compound 20, N1-(5-cyclopentylpyrazolo[1,5-a]pyrimidin-7-yl)cyclobutane-1,3-diamine]
42 | 6.30 to 9.00 | N[C@H]1CC[C@H](Nc2cc(C3CCCC3)nc3ccnn23)CC1 [Compound 8, [4-[(5-cyclopentylpyrazolo[1,5-a]pyrimidin-4-ium-7-yl)amino]cyclohexyl]ammonium dichloride]
43 | < 6.00 | CC(C)c1cc(N[C@@H]2CCOC2)n2nccc2n1 [Compound 30, 5-isopropyl-N-[(3R)-tetrahydrofuran-3-yl]pyrazolo[1,5-a]pyrimidin-7-amine]
44 | 6.30 to 9.00 | CCC(C)c1cc(NC2CCCC2)n2nccc2n1 (centres unmarked) [Compound 3, N-cyclopentyl-5-sec-butyl-pyrazolo[1,5-a]pyrimidin-7-amine]
45 | 6.30 to 9.00 | N[C@@H]1CC[C@H](Nc2cc(C3CCCC3)nc3ccnn23)C1 [Compound 23, (1R,3S)—N3-(5-cyclopentylpyrazolo[1,5-a]pyrimidin-7-yl)cyclopentane-1,3-diamine]
46 | 6.30 to 9.00 | c1cc2nc(C3CCCC3)cc(NC3CCCC3)n2n1 [Compound 5, N,5-dicyclopentylpyrazolo[1,5-a]pyrimidin-7-amine]
47 | 6.00 to 6.30 | Cc1cc(N[C@H]2CC[C@H](N)C2)n2nccc2n1 [Compound 24, (1S,3S)—N3-(5-methylpyrazolo[1,5-a]pyrimidin-7-yl)cyclopentane-1,3-diamine]
48 | 6.30 to 9.00 | N[C@H]1CC[C@@H](Nc2cc(C3CCCC3)nc3ccnn23)C1 [Compound 15, (1 S,3R)—N3-(5-cyclopentylpyrazolo[1,5-a]pyrimidin-7-yl)cyclopentane-1,3-diamine]
49 | 6.30 to 9.00 | CCC(C)c1cc(N[C@H]2CC[C@H](N)CC2)n2nccc2n1 (some centres unmarked) [Compound 7, [4-[(5-sec-butylpyrazolo[1,5-a]pyrimidin-4-ium-7-yl)amino]cyclohexyl]ammonium dichloride]
50 | 6.30 to 9.00 | N[C@H]1CC[C@H](Nc2cc(C3CCCC3)nc3ccnn23)C1 [Compound 9, [(1S,3S)-3-[(5-cyclopentylpyrazolo[1,5-a]pyrimidin-4-ium-7-yl)amino]cyclopentyl]ammonium dichloride]
